Test results from article PMC12658820, “Development of Tunable Rose Bengal-Based nanoGUMBOS as Potential Selective Chemotherapeutic Agents” (ACS Omega, 2025).
“And” between values parts separate entries of the source, which are not always exact repeats. Equal entries are not always repeated. “Also recorded” adds a separate entry of the source. Structures can show the parent of a compound that is named as a salt.

Legend:
[1] = tested on: A549 cells; design: method as in numbers not shown in text; details: literature comparison, ref numbers not shown in text; cited from earlier work
[2] = Dynamic light scattering (DLS) nanoparticle size; type: physicochemical; details: 10 μM solutions of nanoGUMBOS
Method: (§1) The series of RB-based nanoGUMBOS was synthesized by a simple reprecipitation method to form nanoparticles from a 10 mM RB-based GUMBOS stock solution in MeOH or DMSO. Briefly, a small aliquot of a MeOH/DMSO solution of each RB-based GUMBOS was rapidly introduced into a large volume of an aqueous cell medium (Dulbecco’s modified Eagle’s medium (DMEM), containing 10% fetal bovine serum) or water under ultrasonication. In this condition, a supersaturation of the hydrophobic RB-based GUMBOS is achieved in the aqueous system, leading to the precipitation of the RB-based GUMBOS into small particles. After that, the solution was placed on the bench and allowed to rest for a period of 15 min to allow the nucleation of the nanoparticles.
(§2) Once the incubation period concluded, DLS and S-TEM instruments were used to characterize the nanoGUMBOS. Dynamic light scattering was performed using a Malvern Zetasizer. […] Each compound was scanned at 25 °C for 10 s each scan, and the system automatically adjusted the scans needed per run. S-TEM was employed via the use of a JEOL-SEM 7600F instrument, with a vacuum pressure of 1.9E^–4 Pa, electron beam at 30,000 V, and amplified current of […], with each micrograph content being produced at 8000× magnification. ImageJ software was used for the measurements of electron micrograph images. The polydispersity index from the TEM micrograph was calculated using eq . 1 PDI=sizedeviation(σ)/sizemean(μ)

[3] = tested on: HEK293 human embryonic kidney cells; experiment: Confocal microscopy cell viability (DAPI-stained nuclei), HEK293; type: cell-based; details: 10 μM nanoGUMBOS; for cell viability versus control, statistical significance, HEK293: unpaired t-test
Method: (§3) HEK293 or A549 Cells were collected from a T-25 culture flask following a standard cell culture harvesting procedure. A549 cells were diluted in cell culture media to a concentration of roughly 1,35,000 cells/mL. From this, the cells were loaded into individual chambers on an eight-chamber microscope slide, with a cell count per chamber of roughly 60,000 cells. This slide was then placed in an incubator (37 °C and 5.0% CO2 conditions) for 24 h before treating. When the treatment began, the original cell culture media was removed from the cells, and a compound/media mixture was added to each well. A control group of only cell culture media/DMSO was prepared and applied to one chamber in the slide, with the others consisting of treatment groups, following a serial dilution from 10 μM down to 0.15625 μM. After applying the treatment, the plate was returned to the incubator for 24 h. Following the incubation period, the cells were fixed using a 4% formaldehyde solution in the PBS buffer for 15 min at room temperature. After 15 min, the cells were washed three times with PBS. Then, to prepare the cells for staining, 0.5% Triton X-100 in PBS was applied to the cells for 15 min at room temperature. This was followed by three washes with PBS again. A 3% bovine serum albumin in PBS buffer was added to the cells for 60 min to block potential nonspecific binding sites for later 4′,6-diamidino-2-phenylindole (DAPI) staining. Another three washes with PBS were applied to the cells, and the cells were stained with a 1 μg/mL solution of DAPI and a mounting solution.
(§4) The imaging method employed fluorescence microscopy for nuclear staining visualization, allowing for an accurate quantification of viable cells based on intact nuclear morphology. ImageJ software was used to count the cell nuclei in each image. To avoid background signal, the software was set to only include nuclei of 20 μm^2 or larger. Viability quantification was performed by counting intact, properly stained nuclei and expressing results as a percentage of control values, with error bars representing standard error of the mean (SEM) from triplicate experiments. Statistical analysis was performed using unpaired t-tests with significance set at p < 0.05. Each nanoGUMBOS treatment was compared independently to control within the same cell lines, representing planned pairwise comparisons rather than exploratory testing. Given this, each nanoGUMBOS formulation that reduces cell viability will be assessed for an untreated cell line. Comparisons are made within discrete experimental groups for each cell line; thus, the unpaired t-test is employed. Dose–response curves and IC50 values were generated using a four-parameter logistic regression model implemented in Python (v3.12) within Jupyter Notebook (Anaconda distribution). Curve fitting was performed with the SciPy package (version 1.13), and figures were prepared using Matplotlib (v3.9). The rationale for selecting A549 (lung carcinoma) and HEK293 (noncancerous embryonic kidney) cell lines was based on their well-characterized nature and widespread use in cancer research, representing a relevant cancer model and a noncancerous control, respectively. […] Selectivity will be calculated using eq . 5 SI=cytotoxicityofA549cells/cytotoxicityofHEK293cells

[4] = S-TEM nanoparticle size; type: physicochemical; details: for TEM mean size / TEM PDI: 10 μM solutions of nanoGUMBOS; for TEM PDI: size deviation/size mean
Method: as §1, §2

[5] = Octanol/water partition experiments; type: physicochemical; details: stirred 24 h, absorbance at 562 nm, triplicate
[6] = tested on: A549 lung carcinoma cells; experiment: Confocal microscopy cell viability (DAPI-stained nuclei), A549; type: cell-based, human; details: for average viability decrease, A549 / cell viability versus control, statistical significance, A549 / average cell viability, A549: 10 μM nanoGUMBOS; for cell viability versus control, statistical significance, A549: unpaired t-test; for selectivity index (SI): cytotoxicity of A549 cells / cytotoxicity of HEK293 cells; for nuclear morphology in fluorescence imaging: DAPI staining, in the dark, A549 and HEK293 imaged; for average cell viability, A549: no light activation, % of control
Method: as §3, §4

[7] = DLS ζ-potential; type: physicochemical; details: nanoGUMBOS, triplicate
Method: Ultraviolet–visible (UV–vis) absorption was measured between 560 and 562 nm using a Jasco V-750 spectrophotometer for the characterization of GUMBOS and nanoGUMBOS experiments. Fluorescence excitation and emission spectra were recorded using a Jasco FP-8500 fluorescence spectrophotometer. Fourier transform infrared (FT-IR) spectra were collected using a Thermo Scientific Nicolet iS20 instrument with 256 scans and a resolution of 4 cm^–1. A JEOL JSM 7600F scanning electron microscope (SEM) was employed for surface imaging and analysis of samples. A Mettler Toledo pH meter was used for measuring the pH of the various solutions. Ultrafast liquid chromatography (UFLC) coupled with a SHIMADZU electrospray ionization-mass spectrometer (ESI-MS) system was used for the characterization of the synthesized GUMBOS. ^1H and ^13C NMR spectra were collected using a JEOL ECZL-400S NMR spectrometer (400 MHz, CCRL05) equipped with a 24-position autosample changer and autotune probe. Dynamic light scattering (DLS) and ζ-potential measurements were conducted by using a Malvern Zetasizer Nano-Series system. The blood–brain barrier permeability was assessed by using a Bioassay Systems Parallel Artificial Membrane Permeability Assay-BBB Kit. Confocal fluorescence imaging was performed using a Zeiss confocal laser scanning microscope, LSM-710, equipped with an inverted Axio Observer Z1 platform and Airyscan detection. Triple-deionized water was purified by using a Millipore Milli-Q system.
as §2, with “ImageJ software was used for the measurements of electron micrograph images.” left out, “1 PDI=sizedeviation(σ)/sizemean(μ)” left out

Molecule	selectivity index [1]	DLS PDI [2]	DLS mean size [2] [nm]	cell viability decrease, HEK293 ([3]; 24 h) [%]	cell viability, HEK293 ([3]; 24 h, % of control) [%]	cell viability versus control, statistical significance, HEK293 [3]	TEM mean size [4] [nm]	TEM PDI [4]	K o/w (octanol–water partition constant) [5]	average viability decrease, A549 ([6]; 24 h) [%]	cell viability versus control, statistical significance, A549 [6]	selectivity index (SI) [6]	nuclear morphology in fluorescence imaging ([6]; nanoGUMBOS, 24 h)	IC50 ([6]; nanoGUMBOS, 24 h, four-parameter logistic fit, read-out: IC50 against A549 cells)	ζ-potential [7]	DLS mean size ([2]; listed as [Na] 2 [RB]) [nm]	average cell viability, A549 ([6]; 24 h)	DLS mean size ([2]; listed as [TPP] 2 [RB]) [nm]	nanoparticle diameter (method not stated at the place) ([4]; nanoGUMBOS by reprecipitation)
COc1cccc2c1C(=O)c1c(O)c3c(c(O)c1C2=O)C[C@@](O)(C(=O)CO)C[C@@H]3O[C@H]1C[C@H](N)[C@H](O)[C@H](C)O1 [Doxorubicin]	1.5	–	–	–	–	–	–	–	–	–	–	–	–	–	–	–	–	–	–
CCCCCCCCCCCCn1cc[n+](C)c1.CCCCCCCCCCCCn1cc[n+](C)c1.O=C([O-])c1c(Cl)c(Cl)c(Cl)c(Cl)c1-c1c2cc(I)c(=O)c(I)c-2oc2c(I)c([O-])c(I)cc12 [[C12MIm]2[RB], 1-dodecyl-3-methylimidazolium Rose Bengal]	–	0.37	59.87 ± 8.23	63.1	47.1	statistically significant reductions in cell viability; also recorded: statistically significant decrease in cell viability	70.31 ± 16.43	0.23	2.5	77.4	statistically significant reductions in cell viability; also recorded: statistically significant decrease in cell viability	2.1	altered nuclear morphology consistent with apoptotic processes	2160 nM and 2200 nM	≈ −30 mV	–	–	–	–
O=C(O)c1c(Cl)c(Cl)c(Cl)c(Cl)c1-c1c2cc(I)c(=O)c(I)c-2oc2c(I)c(O)c(I)cc12 [[Na]2[RB], Rose Bengal disodium salt, reference compound]	–	0.58	230.9	–	–	no statistically significant difference	268.62 ± 74.02	0.28	4.5	–	no statistically significant difference	–	minimal cellular changes	–	−18.4 mV	230.90 ± 17.89	86.7%	–	–
O=C([O-])c1c(Cl)c(Cl)c(Cl)c(Cl)c1-c1c2cc(I)c(=O)c(I)c-2oc2c(I)c([O-])c(I)cc12.c1ccc([P+](c2ccccc2)(c2ccccc2)c2ccccc2)cc1.c1ccc([P+](c2ccccc2)(c2ccccc2)c2ccccc2)cc1 [[TPP]2[RB], tetraphenylphosphonium Rose Bengal]	–	0.22	40.66	–	–	statistically significant reductions in cell viability; also recorded: statistically significant decrease in cell viability	45.33 ± 11.53	0.24	2.8	57.2	statistically significant reductions in cell viability; also recorded: statistically significant decrease in cell viability	1.5	altered nuclear morphology consistent with apoptotic processes	–	approximately −30 mV	–	below 50%	40.66 ± 3.33	below 100 nm
N.N.[Cl][Pt][Cl] [cisplatin]	under 2	–	–	–	–	–	–	–	–	–	–	–	–	–	–	–	–	–	–
tetrabutylphosphonium Rose Bengal [[TBP]2[RB]]	–	–	–	–	–	no statistically significant difference	–	–	–	–	no statistically significant difference	–	minimal cellular changes	–	–	–	–	–	–
